Results from patent publication US20240008487A1, “FUNGICIDAL COMPOSITIONS” (SYNGENTA CROP PROTECTION AG, priority 2020, published 2024).

Key:
Conditions in all cases: alone
[1] = tested on: Septoria tritici; assay: Septoria tritici (Leaf Blotch) liquid culture growth inhibition; assay type: cell-based
Procedure: (§1) Conidia of the fungus from cryogenic storage were directly mixed into nutrient broth (PDB potato dextrose broth). A DMSO solution of the test compounds was placed into a microtiter plate (96-well format) and the nutrient broth containing the fungal spores was added to it. The test plates were incubated at 24 C and the inhibition of growth was determined photometrically after 72 hrs.

[2] = tested on: Phakopsora pachyrhizi; assay: Phakopsora pachyrhizi (Soybean Rust) on leaf disks of treated soybean plants; assay type: in vivo
Procedure: Whole soybean plants are treated with the recited active ingredients 4 weeks after planting. 1 day after spraying leaf disks are cut from the first trifoliate leaf. Five repetitions at each rate are conducted. The leaf disks are inoculated with Phakopsora pachyrhizi (Asian soybean rust) one day after treatment. Evaluation of the leaf disks is conducted 11 to 14 days after inoculation and the activity is derived from the relation of the treated vs untreated, infested check. The rates of the active ingredients used are given in Table as g active ingredient (a.i.)/ha.

[3] = tested on: Glomerella lagenarium syn. Colletotrichum lagenarium; assay: Glomerella lagenarium syn. Colletotrichum lagenarium (Anthracnose) liquid culture growth inhibition; assay type: cell-based
Procedure: as §1, with “hrs at 620 nm.” for “hrs.”

[4] = tested on: Corynespora cassiicola; assay: Corynespora cassiicola (Target Leaf Spot) liquid culture growth inhibition; assay type: cell-based
Procedure: as §1, with “3-4 days at 620 nm.” for “72 hrs.”

[5] = tested on: Septoria glycines; assay: Septoria glycines (Brown Spot) liquid culture growth inhibition; assay type: cell-based
Procedure: as §1, with “visually” for “photometrically”

[6] = tested on: Botrytis cinerea; assay: Botrytis cinerea (Gray Mould) liquid culture growth inhibition; assay type: cell-based
Procedure: as §1

[7] = tested on: Sclerotinia sclerotiorum; assay: Sclerotinia sclerotiorum (White Mold) liquid culture growth inhibition; assay type: cell-based
Procedure: as §1, with “Mycelial fragments” for “Conidia”, “fungus prepared” for “fungus”, “a fresh liquid culture” for “cryogenic storage”, “hrs at 620 nm” for “hrs.”

CNC(=O)C(F)(F)c1ccc(-c2noc(C(F)(F)F)n2)cc1 [2,2-Difluoro-N-methyl-2-[4-[5-(trifluoromethyl)-1,2,4-oxadiazol-3-yl]phenyl]acetamide]
Observed Activity ([1]; 20 ppm): 20% | Observed Activity ([2]; 0.3 g/ha): 0% | Observed Activity ([2]; 0.6 g/ha): 4% | Observed Activity ([3]; 0.08 ppm): 20%

N#Cc1ccc(Oc2ccc(C(F)(F)C(O)(Cn3nc[nH]c3=S)c3ccc(F)cc3F)nc2)cc1 (stereo not shown) [4-[[6-[2-(2,4-Difluorophenyl)-1,1-difluoro-2-hydroxy-3-(5-thioxo-4H-1,2,4-triazol-1-yl)propyl]-3-pyridyl]oxy]benzonitrile]
Observed Activity ([4]; 0.5 ppm): 0% | Observed Activity ([4]; 1 ppm): 0% | Observed Activity ([4]; 2 ppm): 20% | Observed Activity ([2]; 30 g/ha): 0% | Observed Activity ([2]; 60 g/ha): 10% | Observed Activity ([5]; 1 ppm): 50% | Observed Activity ([5]; 2 ppm): 70%

CCC(=O)Oc1c(OC)ccnc1C(=O)N[C@@H](C)C(=O)O[C@@H](C)[C@@H](C)c1ccccc1C [Compound A-1.2, [(1S,2S)-1-methyl-2-(o-tolyl)propyl] (2S)-2-[(4-methoxy-3-propanoyloxy-pyridine-2-carbonyl)amino]propanoate]
Observed Activity ([4]; 0.06 ppm): 0% | Observed Activity ([1]; 0.02 ppm): 20% | Observed Activity ([1]; 0.03 ppm): 50% | Observed Activity ([1]; 0.06 ppm): 70% | Observed Activity ([1]; 0.1 ppm): 70% | Observed Activity ([2]; 0.3 g/ha): 18% | Observed Activity ([2]; 0.6 g/ha): 55% | Observed Activity ([6]; 2 ppm): 70% | Observed Activity ([5]; 0.03 ppm): 20% | Observed Activity ([5]; 0.06 ppm): 20% | Observed Activity ([3]; 0.02 ppm): 0% | Observed Activity ([3]; 0.1 ppm): 0% | Observed Activity ([3]; 0.2 ppm): 0% | Observed Activity ([7]; 0.02 ppm): 0% | Observed Activity ([7]; 0.1 ppm): 0% | Observed Activity ([7]; 0.2 ppm): 0% | Observed Activity ([7]; 2 ppm): 70%

O=C(Nc1ccccc1F)c1ccc(-c2noc(C(F)(F)F)n2)cc1 [N-(2-fluorophenyl)-4-[5-(trifluoromethyl)-1,2,4-oxadiazol-3-yl]benzamide]
Observed Activity ([1]; 2.22 ppm): 0% | Observed Activity ([1]; 6.66 ppm): 0% | Observed Activity ([1]; 20 ppm): 0% | Observed Activity ([2]; 0.3 g/ha): 0% | Observed Activity ([2]; 0.6 g/ha): 35% | Observed Activity ([3]; 2.22 ppm): 0% | Observed Activity ([3]; 6.66 ppm): 0% | Observed Activity ([3]; 20 ppm): 0%

CNC(=S)c1ccc(-c2noc(C(F)(F)F)n2)cc1 [N-methyl-4-[5-(trifluoromethyl)-1,2,4-oxadiazol-3-yl]benzenecarbothioamide]
Observed Activity ([1]; 2.22 ppm): 0% | Observed Activity ([1]; 6.66 ppm): 70% | Observed Activity ([1]; 20 ppm): 90% | Observed Activity ([2]; 0.3 g/ha): 6% | Observed Activity ([2]; 0.6 g/ha): 74% | Observed Activity ([6]; 2.22 ppm): 0% | Observed Activity ([6]; 6.66 ppm): 20% | Observed Activity ([6]; 20 ppm): 70% | Observed Activity ([3]; 0.08 ppm): 70% | Observed Activity ([7]; 20 ppm): 20%

CCN(C)C=Nc1cc(C)c(Oc2ccccc2)cc1Cl [N′-(2-chloro-5-methyl-4-phenoxy-phenyl)-N-ethyl-N-methyl-formamidine]
Observed Activity ([1]; 0.625 ppm): 20% | Observed Activity ([2]; 1.5 g/ha): 71% | Observed Activity ([2]; 3 g/ha): 71% | Observed Activity ([5]; 0.625 ppm): 70%

CCN(C)C=Nc1cc(C)c(Oc2ccccc2F)cc1Cl [N′-[2-chloro-4-(2-fluorophenoxy)-5-methyl-phenyl]-N-ethyl-N-methyl-formamidine]
Observed Activity ([2]; 1.5 g/ha): 46% | Observed Activity ([2]; 3 g/ha): 80%
